Reference: the NIST ThermoML archive (doi:10.1016/j.tca.2018.10.003)
± gives the expanded uncertainty stated by the source.

Conditions: Crystal; DSC

## O=C(OOC(=O)c1ccccc1)c1ccccc1 [benzoyl peroxide]
  Triple point temperature: 377.75 ± 4.1 K
